Measurements as given in ChEMBL document CHEMBL2440115, “Discovery and characterization of synthetic 4'-hydroxyflavones-New CK2 inhibitors from flavone family” (Bioorg Med Chem, 2013).
pIC50: −log10 of the molar value.

Assays:
Casein kinase II = Casein kinase II (Homo sapiens, UniProt P19784+P67870+P68400); assay: Inhibition of recombinant human CK2 using RRRDDDSDDD as substrate after 20 mins by beta counting analysis in presence of [gamma-labeled 32P]ATP; assay type: protein-complex assay
[1] = target: Casein kinase II (Homo sapiens) (UniProt P67870+P68400+P19784); assay: Inhibition of recombinant human CK2 using RRRDDDSDDD as substrate assessed as residual activity at 10 uM after 20 mins by beta counting analysis in presence of [gamma-labeled 32P]ATP relative to control; assay type: protein-complex assay

Sequence of Casein kinase II (P67870 whole entry): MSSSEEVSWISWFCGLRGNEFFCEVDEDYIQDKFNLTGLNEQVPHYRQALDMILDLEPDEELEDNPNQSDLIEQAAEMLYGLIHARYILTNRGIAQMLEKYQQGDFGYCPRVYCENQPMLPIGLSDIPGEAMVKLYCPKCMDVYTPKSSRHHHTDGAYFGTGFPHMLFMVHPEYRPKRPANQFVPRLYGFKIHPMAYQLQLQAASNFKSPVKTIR
Sequence of Casein kinase II (P68400 whole entry): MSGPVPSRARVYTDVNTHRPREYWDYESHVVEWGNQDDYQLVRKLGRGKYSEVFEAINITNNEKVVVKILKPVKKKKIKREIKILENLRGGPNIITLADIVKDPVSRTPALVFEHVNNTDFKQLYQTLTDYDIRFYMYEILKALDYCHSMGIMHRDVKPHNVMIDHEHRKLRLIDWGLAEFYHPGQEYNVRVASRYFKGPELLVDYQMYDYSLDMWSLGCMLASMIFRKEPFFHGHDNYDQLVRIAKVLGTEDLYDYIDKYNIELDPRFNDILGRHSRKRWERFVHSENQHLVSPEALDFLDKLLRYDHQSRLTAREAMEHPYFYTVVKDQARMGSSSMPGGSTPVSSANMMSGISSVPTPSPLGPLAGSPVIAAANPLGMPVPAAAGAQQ
Sequence of Casein kinase II (P19784 whole entry): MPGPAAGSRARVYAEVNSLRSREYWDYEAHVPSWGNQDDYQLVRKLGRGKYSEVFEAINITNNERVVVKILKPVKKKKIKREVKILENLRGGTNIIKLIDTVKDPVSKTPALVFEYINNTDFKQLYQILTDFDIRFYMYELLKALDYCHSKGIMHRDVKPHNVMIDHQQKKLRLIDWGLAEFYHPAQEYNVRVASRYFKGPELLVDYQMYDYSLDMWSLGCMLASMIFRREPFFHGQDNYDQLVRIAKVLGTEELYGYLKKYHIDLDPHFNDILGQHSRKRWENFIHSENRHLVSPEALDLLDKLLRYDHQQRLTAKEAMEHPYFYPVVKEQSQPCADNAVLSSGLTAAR

Row | Compound | pIC50 (Casein kinase II) | Activity [1] [%]
1 | COc1cc(-c2oc3ccc(C)cc3c(=O)c2O)cc(OC)c1OC | < 4.52 | 65
2 | Cc1ccc2oc(-c3ccc(F)cc3)c(O)c(=O)c2c1 | < 4.52 | 60
3 | COc1ccc(-c2oc3cc(C)cc(C)c3c(=O)c2OC(=O)C2COc3ccccc3O2)cc1 (configuration not stated) | 4.68 | 37
4 | COc1cc(-c2cc(=O)c3c(CN(C)Cc4ccccc4)c(O)ccc3o2)cc(OC)c1OC | < 4.52 | 73
5 | CCN1CCN(Cc2c(O)ccc3oc(-c4cc(OC)c(OC)c(OC)c4)cc(=O)c23)CC1 | < 4.52 | 77
6 | COc1cc(-c2cc(=O)c3cc(O)ccc3o2)cc(OC)c1OC | 4.59 | 45
7 | Cc1ccc2oc(-c3cc(Br)ccc3O)c(O)c(=O)c2c1 | 4.55 | 45
8 | Cc1ccc(-c2oc3ccccc3c(=O)c2OCC(=O)N2CCOCC2)cc1 | < 4.52 | 97
9 | COc1ccc(-c2cc(=O)c3cc(C)ccc3o2)cc1 | < 4.52 | 73
10 | Cc1ccc2oc(-c3ccccc3)c(OCC(=O)N3CCOCC3)c(=O)c2c1 | < 4.52 | 95
11 | Cc1ccc(-c2oc3ccc(C)cc3c(=O)c2OCC(=O)O)cc1 | < 4.52 | 83
12 | O=c1cc(-c2ccc(F)cc2)oc2ccccc12 | < 4.52 | 77
13 | Cc1cc(C)c2c(=O)cc(-c3ccc(N(C)C)cc3)oc2c1 | < 4.52 | 58
14 | CN(C)c1ccc(-c2oc3ccccc3c(=O)c2O)cc1 | < 4.52 | 73
15 | COc1ccc(-c2oc3ccccc3c(=O)c2OC)cc1OC | < 4.52 | 66
16 | COc1ccc(-c2cc(=O)c3cc(C)cc(C)c3o2)cc1O | < 4.52 | 
17 | COc1ccc(-c2oc3ccccc3c(=O)c2O)cc1OC [3-HYDROXY-3',4'-DIMETHOXYFLAVONE] | < 4.52 | 66
18 | COc1cc(-c2cc(=O)c3cc(C)ccc3o2)cc(OC)c1OC | < 4.52 | 92
19 | COc1ccc(-c2cc(=O)c3cc(C)cc(C)c3o2)cc1OC | < 4.52 | 87
20 | COc1ccc(-c2cc(=O)c3cc(C)ccc3o2)cc1OC | < 4.52 | 81

Row | Compound | pIC50 (Casein kinase II) | Activity [1] [%]
21 | COc1ccc(-c2cc(=O)c3c(CN4CCC(C)CC4)c(O)ccc3o2)cc1 | < 4.52 | 68
22 | COc1ccc(-c2oc3c(C)cc(C)cc3c(=O)c2OS(C)(=O)=O)cc1 | 4.55 | 46
23 | COc1cc(-c2cc(=O)c3c(CN4CCCCC4)c(O)ccc3o2)cc(OC)c1OC | < 4.52 | 74
24 | COc1ccc(-c2oc3ccccc3c(=O)c2O)cc1 | < 4.52 | 86
25 | COc1cccc(-c2oc3ccc(C)cc3c(=O)c2O)c1 | 4.60 | 47
26 | COc1ccc(-c2cc(=O)c3cc(O)ccc3o2)cc1 | 4.52 | 49
27 | COc1cccc(-c2cc(=O)c3cc(C)cc(C)c3o2)c1O | < 4.52 | 
28 | Cc1ccc(-c2cc(=O)c3cc(C)cc(C)c3o2)cc1 | 4.68 | 35
29 | CCOc1ccc(-c2oc3ccc(C)cc3c(=O)c2O)cc1 | < 4.52 | 57
30 | COc1ccc(-c2cc(=O)c3c(CN(C)Cc4ccccc4)c(O)ccc3o2)cc1 | < 4.52 | 73
31 | Cc1ccc2oc(-c3ccc(C(C)C)cc3)c(O)c(=O)c2c1 | 4.59 | 39
32 | COc1ccc(-c2cc(=O)c3c(CN4CCOCC4)c(O)ccc3o2)cc1 | < 4.52 | 79
33 | Cc1ccc(-c2oc3c(C)cc(C)cc3c(=O)c2OCC(=O)O)cc1 | 4.55 | 50
34 | Cc1ccc2oc(-c3ccc(Br)cc3)c(O)c(=O)c2c1 | < 4.52 | 65
35 | COc1ccc(-c2oc3ccc(C)cc3c(=O)c2O)cc1 | 4.55 | 50
36 | Cc1ccc2oc(-c3ccccc3)c(O)c(=O)c2c1 | < 4.52 | 80
37 | COc1ccc(-c2oc3ccc(C)cc3c(=O)c2O)cc1OC | < 4.52 | 64
38 | Cc1ccc(-c2oc3ccc(C)cc3c(=O)c2O)cc1 | < 4.52 | 56
39 | O=c1cc(-c2cccc(Br)c2)oc2ccc(O)cc12 | 4.72 | 29
40 | COc1ccc(-c2cc(=O)c3cc(OC(C)=O)ccc3o2)cc1 | < 4.52 | 89

Continued by rising pIC50 (Casein kinase II), values first:

Row | pIC50 (Casein kinase II) | Activity [1] [%] | Compound
41 | 4.72 | 35 | Cc1ccc(-c2cc(=O)c3cc(O)ccc3o2)cc1
42 | 4.82 | 18 | COc1ccc(-c2cc(=O)c3c4c(ccc3o2)OCN(c2cccc(C(F)(F)F)c2)C4)cc1
43 | 4.92 | 17 | COc1ccc(-c2cc(=O)c3c4c(ccc3o2)OCN(Cc2ccco2)C4)cc1
44 | 5.10 | 18 | CCOc1cc(-c2cc(=O)c3cc(C)ccc3o2)ccc1O
45 | 5.10 |  | Cc1ccc2oc(-c3ccc(O)cc3)cc(=O)c2c1
46 | 5.12 | 21 | CCOc1cc(-c2cc(=O)c3ccccc3o2)ccc1O
47 | 5.52 |  | COc1cc(-c2cc(=O)c3cc(C)c(C)cc3o2)ccc1O
48 | 5.66 |  | Cc1cc(C)c2oc(-c3cccc(O)c3)cc(=O)c2c1
49 | 5.70 |  | COc1cc(-c2cc(=O)c3c(C)c(Cl)c(C)cc3o2)ccc1O
50 | 5.80 |  | Cc1cc(C)c2oc(-c3ccc(O)cc3)cc(=O)c2c1
51 | 6.10 | 5 | COc1cc(-c2cc(=O)c3ccccc3o2)ccc1O
52 | 6.10 |  | COc1cc(-c2cc(=O)c3cc(Cl)c(C)cc3o2)ccc1O
53 | 6.19 |  | COc1cc(-c2cc(=O)c3cc(C)cc(C)c3o2)cc(Br)c1O
54 | 6.35 |  | Cc1cc(C)c2oc(-c3ccc(O)c(O)c3)cc(=O)c2c1
55 | 6.49 |  | COc1cc(-c2cc(=O)c3cc(C)ccc3o2)ccc1O
56 | 6.52 |  | COc1cc(-c2cc(=O)c3ccc(C)c(C)c3o2)ccc1O
57 | 6.62 |  | COc1cc(-c2cc(=O)c3cc(Cl)ccc3o2)ccc1O

Row | pIC50 (Casein kinase II) | Activity [1] [%] | Compound
58 | 6.70 |  | COc1ccc2oc(-c3ccc(O)c(OC)c3)cc(=O)c2c1
59 | 6.74 |  | Cc1cc(C)c2oc(-c3cc(Br)c(O)c(Br)c3)cc(=O)c2c1
60 | 6.76 |  | COc1ccc2c(=O)cc(-c3ccc(O)c(OC)c3)oc2c1
61 | 6.82 |  | COc1cc(-c2cc(=O)c3cc(NC(C)=O)ccc3o2)ccc1O
62 | 6.92 |  | CCc1ccc2oc(-c3ccc(O)c(OC)c3)cc(=O)c2c1
63 | 6.92 |  | COc1cc(-c2cc(=O)c3cc(Br)ccc3o2)ccc1O
64 | 7.05 |  | COc1cc(-c2cc(=O)c3ccc(C)cc3o2)ccc1O
65 | 7.05 |  | COc1cc(-c2cc(=O)c3cc(C)cc(C)c3o2)cc(Cl)c1O
66 | 7.06 |  | COc1cc(-c2cc(=O)c3ccc4ccccc4c3o2)cc(Cl)c1O
67 | 7.11 |  | Cc1cc(C)c2oc(-c3cc(Cl)c(O)c(Cl)c3)cc(=O)c2c1
68 | 7.18 |  | COc1cc(-c2cc(=O)c3cc(C)cc(C)c3o2)cc([N+](=O)[O-])c1O
69 | 7.30 |  | Cc1cc(C)c2oc(-c3ccc(O)c(Br)c3)cc(=O)c2c1
70 | 7.52 |  | COc1cc(-c2cc(=O)c3c(C)cc(C)cc3o2)ccc1O
71 | 7.55 |  | COc1cc(-c2cc(=O)c3ccc4ccccc4c3o2)ccc1O
72 | 7.70 |  | COc1cc(-c2cc(=O)c3cc(Cl)cc(Cl)c3o2)cc(Cl)c1O
73 | 7.92 |  | Cc1cc(C)c2oc(-c3ccc(O)c([N+](=O)[O-])c3)cc(=O)c2c1
